{
  "source": "patent US6803362B2",
  "about": "“Heterocyclic compounds” (Ortho-McNeil Pharmaceutical inc., priority 2001, dated 2004)",
  "system": "Croton Oil Induced Topical Inflammation in Mice",
  "assay": "Croton oil induced topical inflammation in mice (ear swelling)",
  "type": "in vivo, mouse",
  "conditions": "10 mg/kg s.c.; vs vehicle group; 6 h",
  "experimental": "Male or female ICR derived mice weighing 22±1 g were used. Space allocation for 5 animals was 45×23×15 cm. Mice were house in APEC R cages. All animals were maintained in a controlled temperature (22° C.-24° C.) and humidity (60%-80%) environment with 12 h light/dark cycles. Free access to standard lab chow for Mice (LabDiet Rodent Diet, PMI Nutrition International, USA) and tap water was granted.\nAcetone (Wako, Japan), Croton oil (Sigma, USA), Indomethacin (Sigma, USA) and Pyrogen free saline (Astar, Taiwan).\nGroups of 5 ICR derived male mice weighing 22±1 g were used. […] Ear swelling was measured by Dyer model micrometer gauge 6 h after croton oil as an index of inflammation.",
  "data": [
    {"smiles": "CN1CCN(C(=O)c2cc3cc(Cl)ccc3[nH]2)CC1", "note": "[Compound 1, (5-Chloro-1H-indol-2-yl)-(4-methyl-piperazin-1-yl)-methanone]", "values": [
      {"measurement": "% inhib (ear swelling)", "result": "(−28%)"}
    ]}
  ]
}
